From patent US6165441A, “Method of diagnosis and photodynamic therapy of tumours” (Nycomed Amersham Sorin SRL, priority 1995, dated 2000)

Experiments:
[1] = Biodistribution of ^131 I radioactivity in excised tissues after i.v. injection (pharmacokinetic studies, gamma counter); type: in vivo, Balb/c mice; details: for Recovery from BRAIN / Recovery from KIDNEY / Recovery from LIVER / Recovery from LUNG / Recovery from MUSCLE / Recovery from SPLEEN: 0.096 MBq/g in DPPC liposomes, average of three mice ± s.d.
Description: (§1) Experimental tests were carried out in Balb/c mice affected by a MS-2 fibrosarcoma. This tumour model had been previously used for extensive PDT studies with unlabelled ZnPc.
(§2) For tumour implantation 2×10^5 cells in 0.2 ml of sterile physiological solution were intramuscularly injected into the right hind leg of female Balb/c mice having a body wt. of 20-22 g. All the experiments were started on the eighth day after tumour implantation, when the external diameter was ca. 0.8 cm and no detectable spontaneous tumour necrosis had generally occurred. When necessary, mice were anesthetized by i.p. injection of Ketalar (150 mg/kg).
^131 I--Zn(II)-phthalocyanine was incorporated into small unilamellar vesicles of DPPC following the procedure described by Valduga et al., J.Inorg.Biochem. (1987), 25-59.
(§3) Balb/c mice bearing the MS-2 fibrosarcoma were injected in the tail vein with ^131 I--ZnPc at does between 0.024 and 0.096 MBq/g. At predetermined times up to 24 hours after injection, the whole body of the mice was scanned with a Gamma Camera General Electric Stargem in order to ensure the radioactivity levels at different anatomical sites. Then, the mice were sacrificed by prolonged exposure to ether vapours; the blood, tumour and selected normal tissues (muscle, skin, lung, liver, spleen, kidney, brain) were rapidly taken. The blood was centrifuged to remove the erythrocytes and the radioactivity in the plasma (100 μl) was analyzed. Moreover, tissues were washed with physiological solution, weighed, introduced into RIA test tubes and centrifuged for 10 minutes and 2000 g. The radioactivity was collected for 1 minute by a gamma counter (Packard Selektronik Design). A different group of mice was injected as above described, sacrificed at 3 hours, 15 hours, 24 hours, 48 hours and 96 hours after injection (three mice at each time) and the radioactivity in plasma and tissues homogenates was determined.

[2] = Clearance of ^131 I--ZnPc from serum; type: in vivo, Balb/c mice
Description: as §3

[3] = tested on: MS-2 fibrosarcoma; assay: Tumour accumulation and tumour/muscle radioactivity ratio; type: in vivo, Balb/c mice; details: for Recovery from TUMOUR: average of three mice ± s.d.; for Kinetics of tumour uptake and clearance, ^131 I--ZnPc versus ZnPc: mouse, in vivo
Description: as §1, §2, §3
FIG. 2 is an histogram showing the ratio between the tumour/muscle radioactivity of ^131 I--ZnPc at different times after injection of 0.096 MBq/g ^131 I--ZnPc in DPPC liposomes; averaged ratios for three independently analyzed mice±s.d..
FIG. 3 is an histogram showing the ratio between the tumour/muscle radioactivity of ^131 I--ZnPc at different concentrations at 24 hours after injection of ^131 I--ZnPc in DPPC liposomes; averaged ratio for three independently analyzed mice±s.d..

[4] = In vivo whole body Gamma Camera scanning of radioactivity distribution; design: species or system Balb/c mice
Description: as §3

[5] = tested on: tumour; details: cited from earlier work
[6] = i.v. 0.096 MBq/g in DPPC liposomes

^131 I--Zn(II)-phthalocyanine [^131 I--ZnPc]
Recovery from BRAIN ([1]; 3 h): 11.7 ± 0.1 CPM/mg of tissue
Recovery from KIDNEY ([1]; 3 h): 156.9 ± 9.7 CPM/mg of tissue
Recovery from LIVER ([1]; 3 h): 984.2 ± 15.7 CPM/mg of tissue
Recovery from LUNG ([1]; 3 h): 168.3 ± 5.6 CPM/mg of tissue
Recovery from MUSCLE ([1]; 3 h): 41.1 ± 3.6 CPM/mg of tissue
Recovery from SPLEEN ([1]; 3 h): 600.9 ± 8.1 CPM/mg of tissue
Recovery from BRAIN ([1]; 15 h): 5.2 ± 1.5 CPM/mg of tissue
Recovery from KIDNEY ([1]; 15 h): 84.4 ± 8.4 CPM/mg of tissue
Recovery from LIVER ([1]; 15 h): 871.1 ± 146.8 CPM/mg of tissue
Recovery from LUNG ([1]; 15 h): 76.2 ± 31.4 CPM/mg of tissue
Recovery from MUSCLE ([1]; 15 h): 22.4 ± 9.3 CPM/mg of tissue
Recovery from SPLEEN ([1]; 15 h): 503.7 ± 46.8 CPM/mg of tissue
Recovery from BRAIN ([1]; 24 h): 4.3 ± 0.6 CPM/mg of tissue
Recovery from KIDNEY ([1]; 24 h): 77.3 ± 11.2 CPM/mg of tissue
Recovery from LIVER ([1]; 24 h): 1043.7 ± 72.5 CPM/mg of tissue
Recovery from LUNG ([1]; 24 h): 83.3 ± 12.4 CPM/mg of tissue
Recovery from MUSCLE ([1]; 24 h): 23.7 ± 2.0 CPM/mg of tissue
Recovery from SPLEEN ([1]; 24 h): 635.1 ± 65.8 CPM/mg of tissue
Recovery from BRAIN ([1]; 48 h): 3.4 CPM/mg of tissue
Recovery from KIDNEY ([1]; 48 h): 59.4 CPM/mg of tissue
Recovery from LIVER ([1]; 48 h): 849.1 ± 90.3 CPM/mg of tissue
Recovery from LUNG ([1]; 48 h): 73.4 CPM/mg of tissue
Recovery from MUSCLE ([1]; 48 h): 22.3 CPM/mg of tissue
Recovery from SPLEEN ([1]; 48 h): 549.7 CPM/mg of tissue
Recovery from BRAIN ([1]; 96 h): 2.0 ± 0.4 CPM/mg of tissue
Recovery from KIDNEY ([1]; 96 h): 61.6 ± 16.8 CPM/mg of tissue
Recovery from LIVER ([1]; 96 h): 831.9 ± 52.5 CPM/mg of tissue
Recovery from LUNG ([1]; 96 h): 52.1 ± 6.9 CPM/mg of tissue
Recovery from MUSCLE ([1]; 96 h): 15.8 ± 2.5 CPM/mg of tissue
Recovery from SPLEEN ([1]; 96 h): 413.0 ± 42.7 CPM/mg of tissue
Amounts recovered from muscle ([1]; at all times): small amounts of phthalocyanine are recovered from muscle at all times
Elimination from liver and spleen ([1]; during the initial four days): relatively slow elimination at least during the initial four days
Amounts recovered from brain ([1]; i.v. in DPPC liposomes): minimal amounts
Levels in kidneys ([1]; i.v. in DPPC liposomes): comparatively low levels observed in kidneys
Recovery in the liver and spleen ([1]; i.v. in DPPC liposomes): very high in the liver and spleen
Toxic effects on the central nervous system ([1]; inferred from minimal brain recovery): unlikely
Amount cleared via the kidneys ([1]; main elimination via bile-gut pathway): only minor amounts cleared via the kidneys
Amount accumulated by liver and spleen ([1]; mouse, in vivo): large amount accumulated by liver and spleen
Accumulation in the liver compared with ZnPc ([1]; short post-injection times): greater accumulation
Liver concentration relative to tumour ([1]; short post-injection times): ca. 7 fold
Clearance rate from serum [2, 6]: particularly fast during the initial 15 hours after administration
Elimination from mouse serum ([2]; i.v. 0.096 MBq/g in DPPC liposomes, within 96 hours): almost completely eliminated from mouse serum within 96 hours
Clearance profile from the serum ([2]; mouse, in vivo): apparently polyphasic clearance from the serum
Initial radioactivity disappearing from serum ([2]; within the initial 24 hours post-injection, almost): ~80%
Time of maximum tumour-to-muscle concentration ratio ([3]; 0.096 MBq/g in DPPC liposomes, FIG. 2): 15 h
Tumour-to-muscle concentration ratio over the studied time interval ([3]; 0.096 MBq/g in DPPC liposomes, after 15 hours, FIG. 2): remains at an essentially constant level throughout the studied time interval
Recovery from TUMOUR ([3]; 3 h, 0.096 MBq/g in DPPC liposomes): 140.3 ± 38.6 CPM/mg of tissue
Recovery from TUMOUR ([3]; 15 h, 0.096 MBq/g in DPPC liposomes): 182.7 ± 16.0 CPM/mg of tissue
Recovery from TUMOUR ([3]; 24 h, 0.096 MBq/g in DPPC liposomes): 212.9 ± 8.6 CPM/mg of tissue
Effect of injected dose on tumour/muscle ratio ([3]; 24 hours after administration, 0.024 to 0.096 MBq/g, FIG. 3): affected to a minor extent by the injected dose
Recovery from TUMOUR ([3]; 48 h, 0.096 MBq/g in DPPC liposomes): 180.7 CPM/mg of tissue
Recovery from TUMOUR ([3]; 96 h, 0.096 MBq/g in DPPC liposomes): 162.2 ± 19.5 CPM/mg of tissue
Tumour localization ([3]; ^131 I label): efficient and selective tumour localizer
Time of maximal tumour concentration ([3]; after ca.): ca. 24 hours
Rate of uptake by the tumour ([3]; compared with several normal tissues): relatively low rate of uptake by the tumour as compared with several normal tissues
Time of maximum accumulation in tumour [3, 6]: 24 h
Kinetics of tumour uptake and clearance, ^131 I--ZnPc versus ZnPc [3]: quite similar
Selectivity of tumour targeting (tumour/muscle ratio) compared with ZnPc ([3]; tumour/muscle ratios of phthalocyanine recovery): almost twice higher selectivity of tumour targeting
Localization of radioactivity in the whole animal ([4]; at all examined time intervals): strictly localized at the level of liver and tumour with no general delocalization throughout the organism
Dissociation of ^131 I from the phthalocyanine in vivo ([4]; inferred from whole-animal distribution): unlikely that ^131 I is dissociated from the phthalocyanine to any significant extent

[Zn+2].c1ccc2c(c1)-c1nc-2nc2[n-]c(nc3nc([n-]c4nc(n1)-c1ccccc1-4)-c1ccccc1-3)c1ccccc21 [ZnPc, Zn(II)-phthalocyanine]
Kinetics of tumour uptake and clearance, ^131 I--ZnPc versus ZnPc [3]: quite similar
Selectivity of tumour accumulation ([5]; in vivo): enhanced selectivity of tumour accumulation
Lowest phototherapeutically active dose ([5]; liposome-incorporated, doses as low as): 0.15 mg/kg body wt.
